# Test results taken from the supplement of paper PMC11208160.
# Assay: recombinant UMI read abundance after kanamycin selection (control-corrected) (log10(CPM+1)); higher = more efficient recombination; extreme values may be limits of the assay; sequences stand for … in AGTGCAGAGAAAATCGGCCAGTTTTCTCTGCCTGCAGTCCGCATGCCGTGGGACCCCTTGGGTTCTAACCTGTTGCCTAGATTTATGCAGCGGACTGCCTTTCTCCCAAAGTGATAAACCGG…AGGTTGGTTTCACT; site = the 11-nt donor
# Procedure, shortened: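 Each donor and donor-binding-loop pair was tracked by a 12-nt UMI on a plasmid carrying a promoterless kanamycin gene. With a second plasmid supplying a fixed target and T7-inducible IS621 bridge recombinase, the pool was plated in Escherichia coli on IPTG (0.07 mM) plus kanamycin or unselected. Sequencing of recombinant UMIs across the donor–target junction gave counts expressed as log10(CPM+1) after replicate averaging and control-derived scaling.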
row,Sequence,recombinant UMI read abundance (log10)
1,CTCATATCATGGACCGGTTTTCCCGGTAATCCGTATTTGTC (site CACATATCTGA),0.65
2,CTCATATCATGGACCGGTTTTCCCGGTAATCCGTATTTGTC (site CCCATATCTGA),0.718
3,CTCATATCATGGACCGGTTTTCCCGGTAATCCGTATTTGTC (site CGCATATCTGA),0
4,CTCATATCATGGACCGGTTTTCCCGGTAATCCGTATTTGTC (site CTCATATCTGA),1.5
5,CTCATCGCATGGACCGGTTTTCCCGGTAATCCGTATTTGCC (site CTCATCGCTGG),0.346
6,CTCCACACATGGACCGGTTTTCCCGGTAATCCGTATTTGGG (site CTCCACACTCC),0.0377
7,CTCCAGCCATGGACCGGTTTTCCCGGTAATCCGTATTTGAG (site CTCCAGCCTCT),0.0271
8,CTCCCCACATGGACCGGTTTTCCCGGTAATCCGTATTTGAG (site CTCCCAACTCT),0.00953
9,CTCCCCACATGGACCGGTTTTCCCGGTAATCCGTATTTGAG (site CTCCCCACTCT),0.891
10,CTCCCCACATGGACCGGTTTTCCCGGTAATCCGTATTTGAG (site CTCCCGACTCT),0.0121
11,CTCCCCACATGGACCGGTTTTCCCGGTAATCCGTATTTGAG (site CTCCCTACTCT),0
12,CTCCCTACATGGACCGGTTTTCCCGGTAATCCGTATTTGCG (site CTCCCTACTCA),0.397
13,CTCCCTACATGGACCGGTTTTCCCGGTAATCCGTATTTGCG (site CTCCCTACTCC),0.0203
14,CTCCCTACATGGACCGGTTTTCCCGGTAATCCGTATTTGCG (site CTCCCTACTCG),0.488
15,CTCCCTACATGGACCGGTTTTCCCGGTAATCCGTATTTGCG (site CTCCCTACTCT),0.55
16,CTCCGGCCATGGACCGGTTTTCCCGGTAATCCGTATTTGCT (site CTCCGGCCTAG),0.589
17,CTCCGTACATGGACCGGTTTTCCCGGTAATCCGTATTTGAG (site CTCCATACTCT),0.649
18,CTCCGTACATGGACCGGTTTTCCCGGTAATCCGTATTTGAG (site CTCCCTACTCT),0.0126
19,CTCCGTACATGGACCGGTTTTCCCGGTAATCCGTATTTGAG (site CTCCGTACTCT),0.509
20,CTCCGTACATGGACCGGTTTTCCCGGTAATCCGTATTTGAG (site CTCCTTACTCT),0.0158
21,CTCCTCCCATGGACCGGTTTTCCCGGTAATCCGTATTTGAC (site CTCCTCCCTGT),1.49
22,CTCCTCGCATGGACCGGTTTTCCCGGTAATCCGTATTTGAA (site CTCCTCGCTTT),1.06
23,CTCCTCTCATGGACCGGTTTTCCCGGTAATCCGTATTTGTA (site CTACTCTCTTA),0.176
24,CTCCTCTCATGGACCGGTTTTCCCGGTAATCCGTATTTGTA (site CTCCTCTCTTA),2.45
25,CTCCTCTCATGGACCGGTTTTCCCGGTAATCCGTATTTGTA (site CTGCTCTCTTA),0.0102

row,Sequence,recombinant UMI read abundance (log10)
1,CTCCTCTCATGGACCGGTTTTCCCGGTAATCCGTATTTGTA (site CTTCTCTCTTA),0
2,CTCCTTGCATGGACCGGTTTTCCCGGTAATCCGTATTTGTA (site CTCCTTGCTTA),0
3,CTCGAATCATGGACCGGTTTTCCCGGTAATCCGTATTTGAC (site CTAGTATCTGT),0.00618
4,CTCGAATCATGGACCGGTTTTCCCGGTAATCCGTATTTGAC (site CTCGAATCTGT),1.76
5,CTCGACACATGGACCGGTTTTCCCGGTAATCCGTATTTGCT (site CTCAACACTAG),1.72
6,CTCGACACATGGACCGGTTTTCCCGGTAATCCGTATTTGCT (site CTCCACACTAG),1.93
7,CTCGACACATGGACCGGTTTTCCCGGTAATCCGTATTTGCT (site CTCGACACTAG),2.25
8,CTCGACACATGGACCGGTTTTCCCGGTAATCCGTATTTGCT (site CTCTACACTAG),2.03
9,CTCGCACCATGGACCGGTTTTCCCGGTAATCCGTATTTGTC (site CTCGCACCTGA),0
10,CTCGTCTCATGGACCGGTTTTCCCGGTAATCCGTATTTGAC (site CTAGTATCTGT),0
11,CTCGTCTCATGGACCGGTTTTCCCGGTAATCCGTATTTGAC (site CTCGTCTCTGT),1.54
12,CTCTACACATGGACCGGTTTTCCCGGTAATCCGTATTTGCA (site CTCTACACTAG),1.37
13,CTCTACACATGGACCGGTTTTCCCGGTAATCCGTATTTGCA (site CTCTACACTCG),0.499
14,CTCTACACATGGACCGGTTTTCCCGGTAATCCGTATTTGCA (site CTCTACACTGG),1.53
15,CTCTACACATGGACCGGTTTTCCCGGTAATCCGTATTTGCA (site CTCTACACTTG),2.37
16,CTCTACACATGGACCGGTTTTCCCGGTAATCCGTATTTGGT (site CTCTACACTAA),0.0359
17,CTCTACACATGGACCGGTTTTCCCGGTAATCCGTATTTGGT (site CTCTACACTAC),0.0415
18,CTCTACACATGGACCGGTTTTCCCGGTAATCCGTATTTGGT (site CTCTACACTAG),0.21
19,CTCTACACATGGACCGGTTTTCCCGGTAATCCGTATTTGGT (site CTCTACACTAT),0.203
20,CTCTAGTCATGGACCGGTTTTCCCGGTAATCCGTATTTGTG (site CTCTAGTCTCA),1.99
21,CTCTTCACATGGACCGGTTTTCCCGGTAATCCGTATTTGCT (site CTCTACACTAG),1.29
22,CTCTTCACATGGACCGGTTTTCCCGGTAATCCGTATTTGCT (site CTCTCCACTAG),1.14
23,CTCTTCACATGGACCGGTTTTCCCGGTAATCCGTATTTGCT (site CTCTGCACTAG),0
24,CTCTTCACATGGACCGGTTTTCCCGGTAATCCGTATTTGCT (site CTCTTCACTAG),2.46
25,CTCTTCTCATGGACCGGTTTTCCCGGTAATCCGTATTTGGG (site CACTTCTCTCC),0

row,Sequence,recombinant UMI read abundance (log10)
1,CTCTTCTCATGGACCGGTTTTCCCGGTAATCCGTATTTGGG (site CCCTTCTCTCC),0.0128
2,CTCTTCTCATGGACCGGTTTTCCCGGTAATCCGTATTTGGG (site CGCTTCTCTCC),0.014
3,CTCTTCTCATGGACCGGTTTTCCCGGTAATCCGTATTTGGG (site CTCTTCTCTCC),0
4,CTCTTGGCATGGACCGGTTTTCCCGGTAATCCGTATTTGAA (site CTCTTGGCTTT),1.08
5,CTCTTTGCATGGACCGGTTTTCCCGGTAATCCGTATTTGAC (site CTCTTTGCTGT),0.503
6,CTGAACCCATGGACCGGTTTTCCCGGTAATCCGTATTTGTT (site CGGAATCCTAA),0.0138
7,CTGAACCCATGGACCGGTTTTCCCGGTAATCCGTATTTGTT (site CTGAACCCTAA),0.285
8,CTGAACTCATGGACCGGTTTTCCCGGTAATCCGTATTTGCG (site CTGAACTCTCG),2.99
9,CTGAATCCATGGACCGGTTTTCCCGGTAATCCGTATTTGGT (site CGGAATCCTAA),0.0153
10,CTGAATCCATGGACCGGTTTTCCCGGTAATCCGTATTTGGT (site CTGAATCCTAC),0.615
11,CTGACATCATGGACCGGTTTTCCCGGTAATCCGTATTTGCT (site CAGACATCTAG),1.06
12,CTGACATCATGGACCGGTTTTCCCGGTAATCCGTATTTGCT (site CCGACATCTAG),1.39
13,CTGACATCATGGACCGGTTTTCCCGGTAATCCGTATTTGCT (site CGGACATCTAG),0.00554
14,CTGACATCATGGACCGGTTTTCCCGGTAATCCGTATTTGCT (site CTGACATCTAG),2.47
15,CTGACGACATGGACCGGTTTTCCCGGTAATCCGTATTTGTT (site CTGACGACTAA),0.0946
16,CTGACTCCATGGACCGGTTTTCCCGGTAATCCGTATTTGTT (site CGGAATCCTAA),0.00356
17,CTGACTCCATGGACCGGTTTTCCCGGTAATCCGTATTTGTT (site CTGACTCCTAA),0.838
18,CTGATCCCATGGACCGGTTTTCCCGGTAATCCGTATTTGTG (site CTGATCCCTCA),0.794
19,CTGCAAGCATGGACCGGTTTTCCCGGTAATCCGTATTTGTA (site CTGCAAGCTTA),1.8
20,CTGCCATCATGGACCGGTTTTCCCGGTAATCCGTATTTGGT (site CTGCCATCTAC),0
21,CTGCCCTCATGGACCGGTTTTCCCGGTAATCCGTATTTGTT (site CTGCCCTCTAA),2.18
22,CTGCGTACATGGACCGGTTTTCCCGGTAATCCGTATTTGAT (site CTGCGTACTAT),1.81
23,CTGCGTTCATGGACCGGTTTTCCCGGTAATCCGTATTTGAG (site CTGCGTTCTCT),2.26
24,CTGCTAACATGGACCGGTTTTCCCGGTAATCCGTATTTGCT (site CTGCTAACTAG),2.26
25,CTGCTAACATGGACCGGTTTTCCCGGTAATCCGTATTTGCT (site CTGCTACCTAG),0
